Measurements from the NIST ThermoML archive (doi:10.1016/j.fluid.2015.07.055).
± gives the expanded uncertainty stated by the source.

Assays:
[1] = Crystal; DTA
[2] = Molar enthalpy of transition or fusion; conditions: Crystal; DSC

Normal melting temperature [1]: 142.0 ± 1.1 °C | Molar enthalpy of transition or fusion [2]: 7.2 ± 0.335 kcal/mol
SMILES: CCC(C)(C)C(=O)O[C@H]1C[C@@H](C)C=C2C=C[C@H](C)[C@H](CC[C@@H]3C[C@@H](O)CC(=O)O3)[C@H]21 [(+)-Simvastatin]
